Reference: patent US5079346A, “Gallium-labelled imaging agents” (priority 1990, dated 1992)
Values joined by “and” are separate entries in the source; they are usually repeats but may differ in a detail not shown here. Equal values may be shown once. Read-outs that look alike come from different tables or passages of the source.

Columns and labels:
[1] = rats, cited from earlier work
[2] = literature; cited from earlier work
[3] = literature, cited from earlier work
[4] = Biodistribution in rats after an iv injection; format: in vivo, male Sprague Dawley rats; conditions: for Biodistribution, Blood: blood assumed 7% of body weight; for Biodistribution, Muscle: muscle assumed 40% of body weight; for Brain/Blood: ratio
Procedure: Biodistribution of [^67 Ga]BAT-TECH was studied in male Sprague Dawley rats (200-250 g) which were allowed access to food and water ad lib. Saline solution containing [^67 Ga]BAT-TECH in a volume of 0.2 ml was injected directly into a femoral vein. Rats were sacrified (at various time points, 2, 30 and 60 min., post injection) by cardiac excision under ether anesthesia. The organs of interest were removed and counted using a well gamma counter. Percent dose per organ was calculated by comparison of tissue counts to suitably diluted aliquots of injected material. Total activities of blood and muscle were calculated assuming that they are 7% and 40% of total body weight, respectively. Each time point consists of a group of three rats.
2,9-Dimethyl-2,9-mercapto-5-(2-hydroxyphnyl)-4,7-diazadecane was labelled, and the biodistributino of the labelled compound measured, by analogous methods.

[5] = 1-octanol/0.1 m phosphate
Procedure: The partition coefficient of the [^67 Ga(BAT-TECH)]^+ complex was measured by mixing the compound with 3 g each of 1-octanol and buffer (pH 7.0 or 7.4, 0.1 M phosphate) in a test tube. This test tube was vortexed for 3 minutes at room temperature and then centrifuged for 5 minutes. Two weighed samples (0.5 g each) from the 1-octanol and buffer layers were counted in a well counter. The partition coefficient was determined by calculating the ratio of counts per minute/gram of octanol to that of buffer. Samples from the octanol layer were repartitioned until consistent partition coefficient values were obtained. The measurement was repeated three times.

[6] = Lipid solubility (reverse phase HPLC, PRP-1 column); format: physicochemical; conditions: PRP-1, pH 7
Procedure: At tracer concentrations, the aqueous chemistry has been studied using [^67 Ga] gallium citrate as the starting material. […] The ratio of ligand to ^67 Ga was determined to be […]. Presumably, under the conditions required for the preparation of the ^67 Ga complex, the cationic [^67 Ga(BAT-TECH)]^+ species is formed.

[7] = iv, versus [^68 Ga](5-MeOSal)3 TAME

Compound: COc1ccc2c(c1)C=NCC1(C)CN=Cc3cc(OC)ccc3[O][68Ga]([O]2)[O]c2ccc(OC)cc2C=NC1 [[^68 Ga](5-MeOSal)3 TAME, Gallium-68 1,1,1-tris (5-methoxysalicylaldimino-methyl)ethane]
- heart uptake ([1]; 1 min postinjection): 0.97 % dose/whole heart
- heart uptake ([1]; 30 min postinjection): 0.23 % dose/whole heart
- heart uptake ([1]; 60 min postinjection): 0.14 % dose/whole heart

Compound: CNC1=NN=CC(C)=NN=C(NC)[S][Cu][S]1 [Cu(PTSM), copper-labeled pyruvaldehyde bis(N4-methylthiosemicarbazone)]
- lipid solubility [2]: neutral and lipid-soluble
- intracellular stability ([3]; after interacting with sulfurhydryl groups): decomposes intracellularly
- passage through the cell membrane / blood-brain barrier ([3]; after intravenous injection): passes through the cell membrane, including the intact blood-brain barrier

Compound: CC1(C)C[NH+]2CC(c3ccccc3O)[NH+]3CC(C)(C)[S][67Ga-]23[S]1 (stereo not drawn) [[^67 Ga]2,9-Dimethyl-2,9-Dimercapto-5-(2-hydroxyphenyl)-4,7-diazadecane]
- Biodistribution, Brain ([4]; iv, 2 min): .026 ± .002 % dose/organ
- Biodistribution, Heart ([4]; iv, 2 min): .940 ± .094 % dose/organ
- Biodistribution, Kidney ([4]; iv, 2 min): 5.677 ± .266 % dose/organ
- Biodistribution, Liver ([4]; iv, 2 min): 20.93 ± 4.13 % dose/organ
- Biodistribution, Lung ([4]; iv, 2 min): 1.236 ± .155 % dose/organ
- Biodistribution, Skin ([4]; iv, 2 min): .137 ± .023 % dose/organ
- Biodistribution, Spleen ([4]; iv, 2 min): .431 ± .085 % dose/organ
- Biodistribution, Blood ([4]; iv, 2 min): 11.240 ± .724 % dose/organ
- Biodistribution, Muscle ([4]; iv, 2 min): 14.392 ± 2.91 % dose/organ
- Brain/Blood ([4]; iv, 2 min): .028
- Biodistribution, Brain ([4]; iv, 30 min): .019 ± .001 % dose/organ
- Biodistribution, Heart ([4]; iv, 30 min): .380 ± .039 % dose/organ
- Biodistribution, Kidney ([4]; iv, 30 min): 1.204 ± .080 % dose/organ
- Biodistribution, Liver ([4]; iv, 30 min): 25.31 ± 1.09 % dose/organ
- Biodistribution, Lung ([4]; iv, 30 min): .690 ± .481 % dose/organ
- Biodistribution, Skin ([4]; iv, 30 min): .079 ± .004 % dose/organ
- Biodistribution, Spleen ([4]; iv, 30 min): .155 ± .022 % dose/organ
- Biodistribution, Blood ([4]; iv, 30 min): 2.823 ± .182 % dose/organ
- Biodistribution, Muscle ([4]; iv, 30 min): 17.49 ± 1.37 % dose/organ
- Brain/Blood ([4]; iv, 30 min): .073

Compound: CCC1(CC)C[NH+]2CC3(CCCCC3)[NH+]3CC(CC)(CC)[S][67Ga-]23[S]1 (stereo not drawn) [[^67 Ga]BAT-TECH]
- partition coefficient (1-octanol/buffer) ([5]; pH 7): 147±5.18
- partition coefficient (1-octanol/buffer) ([5]; pH 7.4): 72.3±3.47
- lipid solubility [6]: very lipid-soluble
- blood and lung washout ([4]; in words): rapid blood and lung washout
- myocardial uptake ([4]; in words): fast myocardial uptake
- uptake in the liver, washout ([4]; iv): significant uptake in the liver which does not wash out with time
- Biodistribution, Brain ([4]; iv, 2 min): 0.02 ± 0.004 % dose/organ
- Biodistribution, Heart ([4]; iv, 2 min): 1.68 % dose/organ and 1.68 ± 0.12 % dose/organ
- Biodistribution, Kidney ([4]; iv, 2 min): 6.94 ± 0.31 % dose/organ
- Biodistribution, Liver ([4]; iv, 2 min): 21.52 ± 1.11 % dose/organ
- Biodistribution, Lung ([4]; iv, 2 min): 2.07 ± 0.07 % dose/organ
- Biodistribution, Skin ([4]; iv, 2 min): 5.44 ± 1.65 % dose/organ
- Biodistribution, Spleen ([4]; iv, 2 min): 0.50 ± 0.06 % dose/organ
- Biodistribution, Blood ([4]; iv, 2 min): 10.18 ± 0.30 % dose/organ
- Biodistribution, Muscle ([4]; iv, 2 min): 13.89 ± 3.21 % dose/organ
- Biodistribution, Brain ([4]; iv, 30 min): 0.01 ± 0.001 % dose/organ
- Biodistribution, Heart ([4]; iv, 30 min): 0.52 ± 0.08 % dose/organ
- Biodistribution, Kidney ([4]; iv, 30 min): 2.00 ± 0.10 % dose/organ
- Biodistribution, Liver ([4]; iv, 30 min): 33.54 ± 4.42 % dose/organ
- Biodistribution, Lung ([4]; iv, 30 min): 0.46 ± 0.09 % dose/organ
- Biodistribution, Skin ([4]; iv, 30 min): 7.56 ± 1.60 % dose/organ
- Biodistribution, Spleen ([4]; iv, 30 min): 0.15 ± 0.009 % dose/organ
- heart uptake ([4]; iv, 30 min): 0.52 % dose/g
- Biodistribution, Blood ([4]; iv, 30 min): 3.58 ± 0.08 % dose/organ
- Biodistribution, Muscle ([4]; iv, 30 min): 21.14 ± 2.18 % dose/organ
- Biodistribution, Brain ([4]; iv, 60 min): 0.01 ± 0.002 % dose/organ
- Biodistribution, Heart ([4]; iv, 60 min): 0.26 ± 0.02 % dose/organ
- Biodistribution, Kidney ([4]; iv, 60 min): 1.06 ± 0.14 % dose/organ
- Biodistribution, Liver ([4]; iv, 60 min): 46.41 ± 2.39 % dose/organ
- Biodistribution, Lung ([4]; iv, 60 min): 0.37 ± 0.009 % dose/organ
- Biodistribution, Skin ([4]; iv, 60 min): 5.78 ± 0.92 % dose/organ
- Biodistribution, Spleen ([4]; iv, 60 min): 0.11 ± 0.001 % dose/organ
- Biodistribution, Blood ([4]; iv, 60 min): 4.54 ± 1.10 % dose/organ
- Biodistribution, Muscle ([4]; iv, 60 min): 10.79 ± 1.85 % dose/organ
- heart uptake ([4]; iv, 1 hour): 0.26 % dose/g
- heart to blood ratio [4, 7]: comparable to or superior to those reported for [^68 Ga](5- MeOSal)3 TAME
- heart to lung ratio [4, 7]: comparable to or superior to those reported for [^68 Ga](5- MeOSal)3 TAME
